Broadly, the IC50 is the concentration needed to halve the response being measured. A high value points to lower potency.

In brackets after ≈: the same amount, converted by molar mass. Activity calls are given as the source filed them. The calls are words filed in the database; no cut-off is given here. Some results are limits rather than exact numbers.

Test [1] is described as follows: Inhibition of Escherichia coli NAD+dependent DNA ligase.
A short description of test [2]: Inhibition of human ATP-dependent DNA ligase.
The test system of another test is Escherichia coli. The test is described as follows: Antibacterial activity against wild-type Escherichia coli. In kind it is functional, organism-based.
The next test has as its system Staphylococcus aureus. The test is described as follows: Antibacterial activity against Staphylococcus aureus ATCC 29213. The class given is functional.
In the next test the test system is Streptococcus pneumoniae. The test is described as follows: Antibacterial activity against Streptococcus pneumoniae ATCC 10015. In kind it is functional.
Another test has as its system Haemophilus influenzae. Put plainly: Antibacterial activity against Haemophilus influenzae ATCC 51907. In kind it is functional.

`Nc1nc(OC2CCCC2)nc2c1c(=O)ccn2CCO`: the half-maximal inhibitory concentration (IC50) in test [1] was 510 nM; in test [2], above 55000 nM. Further, in the test on Escherichia coli, the outcome was inactive.
For the compound `C[C@H]1CCCC[C@H]1Oc1nc(N)c2c(=O)ccn([C@@H]3CCC[C@H]3O)c2n1`, the half-maximal inhibitory concentration (IC50) in test [1] is 40 nM; in test [2], above 55000 nM. Besides, the values for the MIC in the test on Staphylococcus aureus and in the test on Streptococcus pneumoniae were 100 µM (≈ 35.8 µg/mL) and 50 µM (≈ 17.9 µg/mL), respectively. The result in the test on Escherichia coli was inactive.
On to `CC(C)Oc1nc(N)c2c(=O)ccn(CCO)c2n1`, for which the 50% inhibitory concentration (IC50) in test [1] is 1060 nM; in test [2] it was above 55000 nM. Moreover, in the test with Escherichia coli, the outcome was inactive.
Taken in the same sequence, the figures for `Nc1nc(OC(CF)CF)nc2c1c(=O)ccn2CCO` were 310 nM, above 55000 nM and “inactive”.
Taken in the same sequence, the figures for `Nc1nc(NC2CCCC2)nc2c1c(=O)ccn2CCO` were above 10000 nM, above 55000 nM and “inactive”.
For `C[C@H]1CCCC[C@H]1Oc1nc(N)c2c(=O)ccn([C@@H]3CCCC[C@H]3O)c2n1`, the 50% inhibitory concentration (IC50) is 110 nM in test [1] and above 55000 nM in test [2]. The figures for the MIC with Staphylococcus aureus and in the test with Streptococcus pneumoniae were 100 µM (≈ 37.2 µg/mL) and 75 µM (≈ 27.9 µg/mL), respectively. Further, the outcome in the test with Escherichia coli was inactive.
On to `C[C@H]1CCCC[C@H]1Oc1nc(N)c2c(=O)ccn(CC#N)c2n1` (relative stereo), for which the values for the half-maximal inhibitory concentration (IC50) in test [1] and in test [2] were 20 nM and above 55000 nM, respectively. In addition, the MIC with Staphylococcus aureus and against Streptococcus pneumoniae was above 100 µM in each case. Besides, the result in the test with Escherichia coli was inactive.
Take `CC1CCC(Oc2nc(N)c3c(=O)ccn([C@H]4CCC[C@@H]4O)c3n2)C(C)C1` (relative stereo): the IC50 in test [1] was 170 nM; in test [2] it was above 55000 nM. The MIC was above 100 µM in the test on Staphylococcus aureus, 16.7 µM (≈ 6.22 µg/mL) with Streptococcus pneumoniae and 50 µM (≈ 18.6 µg/mL) in the test with Haemophilus influenzae. For the same compound, the outcome in the test with Escherichia coli was inactive.
For the compound `Nc1nc(SC2CCCC2)nc2c1c(=O)ccn2[C@H]1CCC[C@@H]1O` (relative stereo), the IC50 in test [1] was 63 nM; in test [2], above 55000 nM. Moreover, the results for the MIC against Staphylococcus aureus, in the test on Streptococcus pneumoniae and against Haemophilus influenzae were 25 µM (≈ 8.66 µg/mL), above 100 µM and above 100 µM, respectively. In the test with Escherichia coli, the outcome was inactive.
For the compound `C[C@H]1CC[C@H](Oc2nc(N)c3c(=O)ccn([C@H]4CC[C@H](O)[C@@H]4O)c3n2)CC1`, the results for the IC50 in test [1] and in test [2] were 225 nM and above 55000 nM, respectively. In addition, the MIC with Staphylococcus aureus was 25 µM (≈ 9.36 µg/mL); in the test on Streptococcus pneumoniae, 4.2 µM (≈ 1.57 µg/mL); against Haemophilus influenzae it was above 100 µM. In the test on Escherichia coli, the result was inactive.
Consider `C[C@H]1CCCC[C@H]1Oc1nc(N)c2c(=O)ccn(Cc3cn[nH]c3)c2n1` (relative stereo), for which the concentration for half-maximal inhibition (IC50) in test [1] is 36 nM; in test [2], above 55000 nM. Further, the MIC with Staphylococcus aureus and with Streptococcus pneumoniae was above 100 µM in each case. Also, the outcome in the test on Escherichia coli was inactive.
In the case of `C[C@H]1CC[C@H](Oc2nc(N)c3c(=O)ccn([C@H]4CCC[C@@H]4O)c3n2)CC1`, the figures for the IC50 in test [1] and in test [2] were 39 nM and above 55000 nM, respectively. Also, the MIC with Staphylococcus aureus was 18.8 µM (≈ 6.74 µg/mL); with Streptococcus pneumoniae, 6.3 µM (≈ 2.26 µg/mL); in the test on Haemophilus influenzae it was 75 µM (≈ 26.9 µg/mL). In addition, the result with Escherichia coli was inactive.
Consider `Nc1nc(OC2CCC(C(F)(F)F)CC2)nc2c1c(=O)ccn2[C@H]1CCC[C@@H]1O` (relative stereo), for which the concentration for half-maximal inhibition (IC50) is 350 nM in test [1] and above 55000 nM in test [2]. In addition, the MIC against Staphylococcus aureus was 50 µM (≈ 20.6 µg/mL); with Streptococcus pneumoniae it was 8.4 µM (≈ 3.46 µg/mL); against Haemophilus influenzae it was above 100 µM. In the test with Escherichia coli, the outcome was inactive.
In the case of `C[C@@H]1CCCC[C@@H]1Oc1nc(N)c2c(=O)ccn(CCO)c2n1` (relative stereo), the results for the IC50 in test [1] and in test [2] were 57 nM and above 55000 nM, respectively. For the same compound, the outcome in the test on Escherichia coli was inactive.
Taken in the same sequence, the figures for `C[C@H]1CC[C@H](Oc2nc(N)c3c(=O)ccn(CCO)c3n2)CC1` were 420 nM, above 55000 nM and “inactive”.
Regarding `C[C@H]1CC[C@H](Oc2nc(N)c3c(=O)ccn(C4[C@@H](O)CC[C@@H]4O)c3n2)CC1`, the IC50 is 76 nM in test [1] and above 55000 nM in test [2]. The figures for the MIC in the test with Staphylococcus aureus, against Streptococcus pneumoniae and against Haemophilus influenzae were 25 µM (≈ 9.36 µg/mL), 5.2 µM (≈ 1.95 µg/mL) and 100 µM (≈ 37.4 µg/mL), respectively. In addition, in the test with Escherichia coli, the outcome was inactive.
`C[C@H]1CC[C@H](Oc2nc(N)c3c(=O)ccn([C@H]4CC(C(N)=O)C[C@@H]4O)c3n2)CC1` (stereo partly specified): the half-inhibitory concentration (IC50) in test [1] was 48 nM; in test [2] it was above 55000 nM. Further, the MIC is above 100 µM against Staphylococcus aureus, 20.8 µM (≈ 8.35 µg/mL) against Streptococcus pneumoniae and 100 µM (≈ 40.1 µg/mL) with Haemophilus influenzae. In addition, the result in the test with Escherichia coli was inactive.
Regarding `Nc1nc(OC2CCC(Cl)CC2)nc2c1c(=O)ccn2[C@H]1CCC[C@@H]1O` (relative stereo), the IC50 in test [1] is 41 nM; in test [2], above 55000 nM. In addition, the MIC worked out at 50 µM (≈ 18.9 µg/mL) with Staphylococcus aureus, 6.3 µM (≈ 2.39 µg/mL) against Streptococcus pneumoniae and 75 µM (≈ 28.4 µg/mL) in the test on Haemophilus influenzae. Besides, the outcome with Escherichia coli was inactive.
In the case of `C[C@H]1CC[C@H](Oc2nc(N)c3c(=O)ccn([C@H]4CC(C(=O)O)C[C@@H]4O)c3n2)CC1` (stereo partly specified), the IC50 is 51 nM in test [1] and above 55000 nM in test [2]. Further, the MIC was above 100 µM in the test on Staphylococcus aureus, 83.3 µM (≈ 33.5 µg/mL) against Streptococcus pneumoniae and above 100 µM in the test with Haemophilus influenzae. The outcome in the test with Escherichia coli was inactive.
Consider `C[C@H]1CCCC[C@H]1Oc1nc(N)c2c(=O)ccn(CC(O)CF)c2n1` (relative stereo), for which the 50% inhibitory concentration (IC50) in test [1] is 28 nM; in test [2], above 55000 nM. The figures for the MIC against Staphylococcus aureus and with Streptococcus pneumoniae were above 100 µM and 100 µM (≈ 35 µg/mL), respectively. In addition, in the test on Escherichia coli, the result was inactive.
Regarding `C[C@H]1CCCC[C@H]1Oc1nc(N)c2c(=O)ccn(Cc3ccc(C(=O)O)cc3)c2n1` (relative stereo), the values for the 50% inhibitory concentration (IC50) in test [1] and in test [2] were 19 nM and above 55000 nM, respectively. For the same compound, the MIC against Staphylococcus aureus and against Streptococcus pneumoniae was above 100 µM throughout. Further, in the test with Escherichia coli, the outcome was inactive.
Take `Nc1nc(OCCF)nc2c1c(=O)ccn2CCO`: the IC50 in test [1] is 1950 nM; in test [2], above 55000 nM. In addition, the result in the test with Escherichia coli was inactive.
Regarding `C[C@H]1CC[C@H](Oc2nc(N)c3c(=O)ccn([C@@H]4CCC[C@H]4O)c3n2)CC1`, the 50% inhibitory concentration (IC50) is 190 nM in test [1] and above 55000 nM in test [2]. The MIC against Staphylococcus aureus turned out to be 37.5 µM (≈ 13.4 µg/mL); in the test on Streptococcus pneumoniae it was 3.1 µM (≈ 1.11 µg/mL); in the test with Haemophilus influenzae it was 100 µM (≈ 35.8 µg/mL). For the same compound, in the test on Escherichia coli, the result was inactive.
`C[C@H]1CCCC[C@H]1Oc1nc(N)c2c(=O)ccn(CC3C[C@@H](O)[C@@H](O)C3)c2n1` (stereo partly specified): the values for the IC50 in test [1] and in test [2] were 68 nM and above 55000 nM, respectively. For the same compound, the MIC in the test with Staphylococcus aureus and in the test on Streptococcus pneumoniae was above 100 µM each time. The result in the test with Escherichia coli was inactive.
For `C[C@H]1CCCC[C@H]1Oc1nc(N)c2c(=O)ccn(CCC#N)c2n1` (relative stereo), the IC50 is 36 nM in test [1] and above 55000 nM in test [2]. Also, the MIC in the test with Staphylococcus aureus and in the test on Streptococcus pneumoniae was above 100 µM throughout. In the test with Escherichia coli, the result was inactive.
Regarding `C[C@H]1CC[C@H](Oc2nc(N)c3c(=O)ccn(Cc4ccc(C(=O)O)s4)c3n2)CC1`, the IC50 in test [1] is 490 nM; in test [2] it was above 55000 nM. Further, the values for the MIC in the test on Staphylococcus aureus, with Streptococcus pneumoniae and in the test on Haemophilus influenzae were above 100 µM, 83.3 µM (≈ 34.5 µg/mL) and 25 µM (≈ 10.4 µg/mL), respectively. Moreover, the result in the test on Escherichia coli was inactive.
Consider `C[C@H]1CCCC[C@H]1Oc1nc(N)c2c(=O)ccn([C@@H]3CC[C@@H]4C[C@H]3OC4=O)c2n1`, for which the IC50 in test [1] is 28 nM; in test [2], above 55000 nM. Further, the MIC against Staphylococcus aureus and against Streptococcus pneumoniae was above 100 µM throughout. Besides, the outcome in the test on Escherichia coli was inactive.
Consider `C[C@H]1CCCC[C@H]1Oc1nc(N)c2c(=O)ccn([C@@H]3COC[C@H]3O)c2n1`, for which the concentration for half-maximal inhibition (IC50) in test [1] was 38 nM; in test [2] it was above 55000 nM. Moreover, the MIC against Staphylococcus aureus and against Streptococcus pneumoniae was 100 µM (≈ 36 µg/mL) throughout. Besides, the outcome in the test on Escherichia coli was inactive.
For the compound `Nc1nc(OC2CCC3(CC2)OCCO3)nc2c1c(=O)ccn2[C@H]1CCC[C@@H]1O` (relative stereo), the results for the IC50 in test [1] and in test [2] were 90 nM and above 55000 nM, respectively. The MIC was above 100 µM against Staphylococcus aureus, 50 µM (≈ 20.1 µg/mL) in the test on Streptococcus pneumoniae and above 100 µM in the test with Haemophilus influenzae. Besides, in the test on Escherichia coli, the outcome was inactive.
Turning to `C[C@H]1CCCC[C@H]1Oc1nc(N)c2c(=O)ccn(CC(O)CO)c2n1` (relative stereo), the IC50 in test [1] was 79 nM; in test [2], above 55000 nM. For the same compound, the MIC with Staphylococcus aureus and in the test with Streptococcus pneumoniae was above 100 µM throughout. Further, the outcome in the test on Escherichia coli was inactive.
Take `Nc1nc(SC2CCCC2)nc2c1c(=O)ccn2CCO`: the values for the 50% inhibitory concentration (IC50) in test [1] and in test [2] were 350 nM and above 55000 nM, respectively. The result with Escherichia coli was inactive.
As for `C[C@H]1CCCC[C@H]1Oc1nc(N)c2c(=O)ccn(CC3CC=CC3)c2n1` (relative stereo), the figures for the 50% inhibitory concentration (IC50) in test [1] and in test [2] were 20 nM and above 55000 nM, respectively. Also, the MIC against Staphylococcus aureus and against Streptococcus pneumoniae was above 100 µM in each case. Further, the outcome in the test with Escherichia coli was inactive.

Values taken from ChEMBL document CHEMBL2029206, “Design, synthesis and biological evaluation of potent NAD+-dependent DNA ligase inhibitors as potential antibacterial agents. Part 2: 4-amino-pyrido[2,3-d]pyrimidin-5(8H)-ones” (Bioorg Med Chem Lett, 2012).
